Laboratory results: PubChem BioAssay AID2060335 (Molecular Pharmacology Branch, DTP, NCI, 2025)
Values joined by “and” are separate entries in the source; they are usually repeats but may differ in a detail not shown here. Identical values can stand only once.

Tested on: DU-145 multicell spheroids with HUVEC/MSC, viability
Test: Anticancer human tumor DU-145 cell line growth inhibition [IpAb];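 also: spheroids exposed to agents for seven days before measurement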;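 as to viability, T/C: percent of DMSO vehicle control viability so 100% = untreated level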
Details: for viability, T/C: stronger effect = lower value; active = viability on the fitted dose curve at most 10% of control; inactive = the rest
Description: Combinatorial screen of targeted agents with ipatasertib and abemaciclib in multi-cell type tumor spheroids
A high-throughput screen of multi-cell type tumor spheroids was designed to identify active combinations of targeted small molecules and ipatasertib or abemaciclib. Complex spheroids include a stromal component modeled by human endothelial cells (HUVEC) and fibroblasts modeled by human mesenchymal stem cells (MSCs). The concentration ranges selected for each drug and investigational agent were based upon clinically achievable concentrations if the clinical Cmax of the agent was known.
Compounds. The drugs and investigational agents: ipatasertib (NSC767898), abemaciclib(NSC768073), selumetinib (NSC741078), trametinib (758246), adavosertib (NSC754352), everolimus (NSC733504), sapanisertib (NSC764658), vemurafenib (NSC761431), venetoclax (NSC766270), copanlisib (NSC809693), apelisib (NSC765974), palbociblib (NSC758247), vemurafenib (NSC761431), dabrafenib (NSC764134), ravoxertinib (NSC781343), BMS-387032 (NSC767048), sotorasib (NSC818433), talazoparib (NSC767125) and afursertib (NSC778305), were obtained from the National Cancer Institute (NCI) Developmental Therapeutics Program Chemical Repository. The FDA-approved anticancer drug set is available from the NCI Developmental Therapeutics Program. […] The stock solutions were prepared in dimethyl sulfoxide (DMSO, Sigma-Aldrich, St. Louis, MO, cat. D2650) at 800-fold the tested concentration and stored at -70 degrees C prior to their use. All drugs and investigational agents were tested over a range starting from a high concentration at or near the clinical Cmax and decreasing in half-log increments. If the clinical Cmax for an agent had not been determined, the highest concentration tested was 10 microM.
NCI60 Cell Culture. NCI60 cell lines were obtained from the NCI Developmental Therapeutics Program Tumor Repository. For each lot of cells, the Repository performed Applied Biosystems AmpFLSTR Identifiler testing with PCR amplification to confirm consistency with the published Identifier STR profile for each cell line. Cells were kept in continuous culture for no more than 20 passages. The optimal seeding densities for each of the cell lines at each time point assessed were determined prior to performing the concentration response studies. Briefly, the NCI60 human tumor lines were grown as monolayers in RPMI 1640 medium supplemented with 10% FBS and 2 mmol/L L-glutamine.
An additional 9 lines were from the NCI60 cell line panel including MDA-MB-231 breast carcinoma, MDA-MB-468 breast carcinoma, MCF7 breast carcinoma, Hs578T breast carcinoma, MALME-3M melanoma, SK-MEL-2 melanoma, SK-OV-3 ovarian carcinoma, DU-145 prostate carcinoma, PC-3 prostate carcinoma, all cell lines along with major genetic alterations are listed on Table 2. Pooled donor human umbilical vein endothelial cells (HUVEC, Lonza, cat. CC-2519) and human mesenchymal stem cells (hMSC, Lonza, cat. PT-2501) were purchased from Lonza (Walkersville, MD).
PDMR cell lines were grown in complete medium (DC medium): Dulbecco's modified Eagle's medium (DMEM)/F12 supplemented with 5% fetal bovine serum (FBS), 2 mM L-glutamine, 100 U/mL penicillin and 100 µg/ml streptomycin, 0.4 µg/ml hydrocortisone, 10 ng/ml epidermal growth factor (EGF) recombinant human protein, 24 µg/mL adenine, and 0.1 mg/mL primocin. During culture from frozen stock vials, PDMR cells were cultured in the same medium containing 10 µM Y-27632 (see Table 3). The PDCs were cultured in complete DMEM/F12 media without 10 microM Y-27632 dihydrochloride for at least two passages prior to the screen. The pooled donor HUVEC and hMSC were cultured in endothelial cell growth medium 2 (PromoCell, Heidelberg, Germany, cat. C-22011) and mesenchymal stem cell growth medium 2 (PromoCell, cat. C-28009), respectively. For all experiments, HUVEC and hMSC were used at passages </=5.
[…]

[1] = curve of first compound, second compound 0.1 µM
[2] = curve of first compound, second compound 0.316 µM
[3] = curve of first compound, second compound 1 µM
[4] = curve of first compound, second compound 3.16 µM
[5] = curve of first compound, second compound 10 µM
[6] = second compound 0.1 µM, first compound 0.00949 µM
[7] = second compound 0.1 µM, first compound 0.03 µM
[8] = second compound 0.1 µM, first compound 0.0949 µM
[9] = second compound 0.1 µM, first compound 0.3 µM
[10] = second compound 0.1 µM, first compound 0.949 µM
[11] = second compound 0.1 µM, first compound 3 µM
[12] = second compound 0.316 µM, first compound 0.00949 µM
[13] = second compound 0.316 µM, first compound 0.03 µM
[14] = second compound 0.316 µM, first compound 0.0949 µM
[15] = second compound 0.316 µM, first compound 0.3 µM
[16] = second compound 0.316 µM, first compound 0.949 µM
[17] = second compound 0.316 µM, first compound 3 µM
[18] = second compound 1 µM, first compound 0.00949 µM
[19] = second compound 1 µM, first compound 0.03 µM
[20] = second compound 1 µM, first compound 0.0949 µM
[21] = second compound 1 µM, first compound 0.3 µM
[22] = second compound 1 µM, first compound 0.949 µM
[23] = second compound 1 µM, first compound 3 µM

Cn1nccc1Nc1nccc(-c2ccn(C(CO)c3ccc(Cl)c(F)c3)c(=O)c2)n1 (configuration not stated)
inactive: viability, T/C (compound 0.0316 µM) 87.3% and 90% | viability, T/C (compound 0.1 µM) 72.5% and 77.1% | viability, T/C (compound 0.316 µM) 79% and 73.5% | viability, T/C (compound 1 µM) 93.7% and 87.4% | viability, T/C (compound 3.16 µM) 112% and 116% | viability, T/C (compound 10 µM) 65% and 81.9%
> 10000 nM: IC50 (curve of compound)

Cn1cnc2c(F)c(Nc3ccc(Br)cc3Cl)c(C(=O)NOCCO)cc21 + CC(C)NCC(C(=O)N1CCN(c2ncnc3c2C(C)CC3O)CC1)c1ccc(Cl)cc1
< 9.49 nM: IC50 [2] | IC50 [3] | IC50 [4] | IC50 [5]
158 nM: IC50 [1]
inactive: viability, T/C [6] 64.7% | viability, T/C [7] 62.4% | viability, T/C [8] 52.3% | viability, T/C [9] 41.3% | viability, T/C [10] 46.5% | viability, T/C [11] 34.9% | viability, T/C [12] 44.7% | viability, T/C [13] 41.9% | viability, T/C [14] 38.8% | viability, T/C [15] 33.1% | viability, T/C [16] 32.9% | viability, T/C [17] 25% | viability, T/C [18] 31.4% | viability, T/C [19] 30.4% | viability, T/C [20] 27.6% | viability, T/C [21] 23% | viability, T/C [22] 21.5% | viability, T/C [23] 19.2% | viability, T/C (second compound 3.16 µM, first compound 0.00949 µM) 18.2% | viability, T/C (second compound 3.16 µM, first compound 0.03 µM) 17% | viability, T/C (second compound 3.16 µM, first compound 0.0949 µM) 16.5% | viability, T/C (second compound 3.16 µM, first compound 0.3 µM) 14.3% | viability, T/C (second compound 3.16 µM, first compound 0.949 µM) 14.5% | viability, T/C (second compound 3.16 µM, first compound 3 µM) 12% | viability, T/C (second compound 10 µM, first compound 0.00949 µM) 16.2% | viability, T/C (second compound 10 µM, first compound 0.03 µM) 13.7% | viability, T/C (second compound 10 µM, first compound 0.0949 µM) 13.3% | viability, T/C (second compound 10 µM, first compound 0.3 µM) 11.8% | viability, T/C (second compound 10 µM, first compound 0.949 µM) 11.4% | viability, T/C (second compound 10 µM, first compound 3 µM) 10.4%

Cn1cnc2c(F)c(Nc3ccc(Br)cc3Cl)c(C(=O)NOCCO)cc21 + CCN1CCN(Cc2ccc(Nc3ncc(F)c(-c4cc(F)c5nc(C)n(C(C)C)c5c4)n3)nc2)CC1
inactive: viability, T/C (second compound 0.01 µM, first compound 0.00949 µM) 80.8% | viability, T/C (second compound 0.01 µM, first compound 0.03 µM) 74.8% | viability, T/C (second compound 0.01 µM, first compound 0.0949 µM) 56.1% | viability, T/C (second compound 0.01 µM, first compound 0.3 µM) 50.7% | viability, T/C (second compound 0.01 µM, first compound 0.949 µM) 42.8% | viability, T/C (second compound 0.01 µM, first compound 3 µM) 38.6% | viability, T/C (second compound 0.0316 µM, first compound 0.00949 µM) 71% | viability, T/C (second compound 0.0316 µM, first compound 0.03 µM) 64.5% | viability, T/C (second compound 0.0316 µM, first compound 0.0949 µM) 53.5% | viability, T/C (second compound 0.0316 µM, first compound 0.3 µM) 46.7% | viability, T/C (second compound 0.0316 µM, first compound 0.949 µM) 44.5% | viability, T/C (second compound 0.0316 µM, first compound 3 µM) 34.4% | viability, T/C [6] 67.4% | viability, T/C [7] 57.6% | viability, T/C [8] 53.8% | viability, T/C [9] 46.3% | viability, T/C [10] 39.9% | viability, T/C [11] 37.1% | viability, T/C [12] 61.5% | viability, T/C [13] 56.3% | viability, T/C [14] 52.8% | viability, T/C [15] 45.9% | viability, T/C [16] 47.4% | viability, T/C [17] 39.2% | viability, T/C [18] 58.1% | viability, T/C [19] 54.1% | viability, T/C [20] 48.8% | viability, T/C [21] 44.4% | viability, T/C [22] 42.1% | viability, T/C [23] 35%
82.4 nM: IC50 [3]
256 nM: IC50 (curve of first compound, second compound 0.01 µM)
213 nM: IC50 (curve of first compound, second compound 0.0316 µM)
145 nM: IC50 [1]
184 nM: IC50 [2]

Cn1ncnc1[C@H]1c2n[nH]c(=O)c3cc(F)cc(c23)N[C@@H]1c1ccc(F)cc1 + CC(C)NCC(C(=O)N1CCN(c2ncnc3c2C(C)CC3O)CC1)c1ccc(Cl)cc1
< 0.316 nM: IC50 [3] | IC50 [4] | IC50 [5]
> 100 nM: IC50 [1]
46.1 nM: IC50 [2]
inactive: viability, T/C (second compound 0.1 µM, first compound 0.000316 µM) 85.8% | viability, T/C (second compound 0.1 µM, first compound 0.001 µM) 81.1% | viability, T/C (second compound 0.1 µM, first compound 0.00316 µM) 83.2% | viability, T/C (second compound 0.1 µM, first compound 0.01 µM) 82.1% | viability, T/C (second compound 0.1 µM, first compound 0.0316 µM) 77.9% | viability, T/C (second compound 0.1 µM, first compound 0.1 µM) 73.4% | viability, T/C (second compound 0.316 µM, first compound 0.000316 µM) 56% | viability, T/C (second compound 0.316 µM, first compound 0.001 µM) 57.8% | viability, T/C (second compound 0.316 µM, first compound 0.00316 µM) 51.9% | viability, T/C (second compound 0.316 µM, first compound 0.01 µM) 53.8% | viability, T/C (second compound 0.316 µM, first compound 0.0316 µM) 51.8% | viability, T/C (second compound 0.316 µM, first compound 0.1 µM) 47.1% | viability, T/C (second compound 1 µM, first compound 0.000316 µM) 34.4% | viability, T/C (second compound 1 µM, first compound 0.001 µM) 36.3% | viability, T/C (second compound 1 µM, first compound 0.00316 µM) 33.5% | viability, T/C (second compound 1 µM, first compound 0.01 µM) 33% | viability, T/C (second compound 1 µM, first compound 0.0316 µM) 34.3% | viability, T/C (second compound 1 µM, first compound 0.1 µM) 33.6% | viability, T/C (second compound 3.16 µM, first compound 0.000316 µM) 24% | viability, T/C (second compound 3.16 µM, first compound 0.001 µM) 24.8% | viability, T/C (second compound 3.16 µM, first compound 0.00316 µM) 23.9% | viability, T/C (second compound 3.16 µM, first compound 0.01 µM) 21.9% | viability, T/C (second compound 3.16 µM, first compound 0.0316 µM) 24.5% | viability, T/C (second compound 3.16 µM, first compound 0.1 µM) 23.3% | viability, T/C (second compound 10 µM, first compound 0.000316 µM) 17.7% | viability, T/C (second compound 10 µM, first compound 0.001 µM) 20.1% | viability, T/C (second compound 10 µM, first compound 0.00316 µM) 19.6% | viability, T/C (second compound 10 µM, first compound 0.01 µM) 19.1% | viability, T/C (second compound 10 µM, first compound 0.0316 µM) 18.1% | viability, T/C (second compound 10 µM, first compound 0.1 µM) 19.5%
